Assay results from ChEMBL document CHEMBL1201862, “PubChem BioAssay data set” (2004).
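Results reflect a 48-hour exposure of cells in 96-well plates to compound at five concentrations. The concentration for 50% growth inhibition is given as GI50.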 Active and inactive are the calls of the source. Cut-off read from the data, not from the text of the source: active = GI50 up to about 1.1 µM and inactive = higher.

Legend:
Experiment in all cases: NCI-60 cell line screen, 48 h
HT-29 = test system: HT-29
SF-539 = test system: SF-539
U-251 = test system: U-251
MDA-N = test system: MDA-N
SNB-19 = test system: SNB-19
OVCAR-8 = test system: OVCAR-8
RXF 393 = test system: RXF 393
MDA-MB-231 = test system: MDA-MB-231
UO-31 = test system: UO-31
SK-MEL-28 = test system: SK-MEL-28
BT-549 = test system: BT-549
HCT-15 = test system: HCT-15
A549 = test system: A549
Hs-578T = test system: Hs-578T
SNB-78 = test system: SNB-78
EKVX = test system: EKVX
NCI-H522 = test system: NCI-H522
UACC-257 = test system: UACC-257
M14 = test system: M14
HCC 2998 = test system: HCC 2998
SK-MEL-2 = test system: SK-MEL-2
MCF7 = test system: MCF7
SN12C = test system: SN12C
M19-MEL = test system: M19-MEL
OVCAR-4 = test system: OVCAR-4
NCI-H460 = test system: NCI-H460
NCI-H23 = test system: NCI-H23
IGROV-1 = test system: IGROV-1
SF-295 = test system: SF-295
CCRF-CEM = test system: CCRF-CEM
DMS-114 = test system: DMS-114
SK-OV-3 = test system: SK-OV-3
LXFL 529 = test system: LXFL 529
KM12 = test system: KM12
HOP-62 = test system: HOP-62
RPMI-8226 = test system: RPMI-8226
DMS-273 = test system: DMS-273
SNB-75 = test system: SNB-75
LOX IMVI = test system: LOX IMVI
RXF 631 = test system: RXF 631
HOP-92 = test system: HOP-92
MOLT-4 = test system: MOLT-4
K562 = test system: K562
HL-60 = test system: HL-60
OVCAR-3 = test system: OVCAR-3
HOP-18 = test system: HOP-18
PC-3 = test system: PC-3
ACHN = test system: ACHN
TK-10 = test system: TK-10
A498 = test system: A498
SW-620 = test system: SW-620
SK-MEL-5 = test system: SK-MEL-5
UACC-62 = test system: UACC-62
MDA-MB-435 = test system: MDA-MB-435
NCI-H226 = test system: NCI-H226
T47D = test system: T47D
NCI/ADR-RES = test system: NCI/ADR-RES
SR = test system: SR
OVCAR-5 = test system: OVCAR-5
KM-20L2 = test system: KM-20L2
DU-145 = test system: DU-145
SF-268 = test system: SF-268
CAKI-1 = test system: CAKI-1
HCT-116 = test system: HCT-116
786-0 = test system: 786-0
DLD-1 = test system: DLD-1
Malme-3M = test system: Malme-3M
COLO 205 = test system: COLO 205
XF498 = test system: XF498

COc1ccc2c(NCCCCCCNc3c4ccccc4nc4cc(OC)ccc34)c3ccccc3nc2c1 was tested, and the GI50 (HT-29) was 0.029 µM (active), the GI50 (SF-539) was 0.0929 µM (active) and the GI50 (U-251) was 0.0728 µM (active). The GI50 (MDA-N) was 0.142 µM (active), the GI50 (SNB-19) was 0.218 µM (active) and the GI50 (OVCAR-8) was 0.0853 µM (active). The GI50 (RXF 393) was 0.0834 µM (active), the GI50 (MDA-MB-231) was 0.067 µM (active) and the GI50 (UO-31) was 12.9 µM (inactive). The GI50 (SK-MEL-28) was 0.342 µM (active), the GI50 (BT-549) was 1.3 µM (inactive) and the GI50 (HCT-15) was 1.29 µM. For the same molecule, the GI50 (A549) was 0.0716 µM (active), the GI50 (Hs-578T) was 0.219 µM (active) and the GI50 (SNB-78) was 0.12 µM (active). The GI50 (EKVX) was 0.579 µM (active), the GI50 (NCI-H522) was 0.0624 µM (active) and the GI50 (UACC-257) was 0.731 µM (active). For the same molecule, the GI50 (M14) was 0.48 µM (active), the GI50 (HCC 2998) was 0.135 µM (active) and the GI50 (SK-MEL-2) was 0.364 µM (active). For the same molecule, the GI50 (MCF7) was 0.0475 µM (active), the GI50 (SN12C) was 0.0676 µM (active) and the GI50 (M19-MEL) was 0.0484 µM (active). For the same molecule, the GI50 (OVCAR-4) was 0.103 µM (active), the GI50 (NCI-H460) was 0.0272 µM (active) and the GI50 (NCI-H23) was 0.104 µM (active). The GI50 (IGROV-1) was 0.075 µM (active), the GI50 (SF-295) was 0.286 µM (active) and the GI50 (CCRF-CEM) was 0.0447 µM (active). The GI50 (DMS-114) was 0.1 µM (active), the GI50 (SK-OV-3) was 0.245 µM (active) and the GI50 (LXFL 529) was 0.04 µM (active). For the same molecule, the GI50 (KM12) was 0.0776 µM (active), the GI50 (HOP-62) was 0.137 µM (active) and the GI50 (RPMI-8226) was 0.0573 µM (active). The GI50 (DMS-273) was 0.0313 µM (active), the GI50 (SNB-75) was 0.175 µM (active) and the GI50 (LOX IMVI) was 0.0653 µM (active). For the same molecule, the GI50 (RXF 631) was 0.126 µM (active), the GI50 (HOP-92) was 0.1 µM (active) and the GI50 (MOLT-4) was 0.0146 µM (active). The GI50 (K562) was 0.0334 µM (active), the GI50 (HL-60) was 0.0923 µM (active) and the GI50 (OVCAR-3) was 0.162 µM (active). The GI50 (HOP-18) was 2.15 µM (inactive), the GI50 (PC-3) was 0.0885 µM (active) and the GI50 (ACHN) was 0.163 µM (active). For the same molecule, the GI50 (TK-10) was 0.385 µM (active), the GI50 (A498) was 0.516 µM (active) and the GI50 (SW-620) was 0.0448 µM (active). For the same molecule, the GI50 (SK-MEL-5) was 1.01 µM (active), the GI50 (UACC-62) was 0.263 µM (active) and the GI50 (MDA-MB-435) was 0.254 µM (active). For the same molecule, the GI50 (NCI-H226) was 0.212 µM (active), the GI50 (T47D) was 0.421 µM (active) and the GI50 (NCI/ADR-RES) was 2.72 µM (inactive). For the same molecule, the GI50 (SR) was 0.0185 µM (active), the GI50 (OVCAR-5) was 0.186 µM (active) and the GI50 (KM-20L2) was 0.065 µM (active). For the same molecule, the GI50 (DU-145) was 0.204 µM (active), the GI50 (SF-268) was 0.213 µM (active) and the GI50 (CAKI-1) was 0.367 µM (active). The GI50 (HCT-116) was 0.0451 µM (active), the GI50 (786-0) was 0.0753 µM (active) and the GI50 (DLD-1) was 0.242 µM (active). The GI50 (Malme-3M) was 0.427 µM (active) and the GI50 (COLO 205) was 0.0753 µM (active).

For CCc1nc2ccccc2c(=O)n1/N=C(\N=N\c1ccc(Cl)cc1)c1ccc(N(C)C)cc1, the GI50 (SF-539) was 30.3 µM (inactive), the GI50 (U-251) was 27.3 µM (inactive) and the GI50 (OVCAR-8) was 34.9 µM (inactive). For the same molecule, the GI50 (RXF 393) was 56 µM (inactive), the GI50 (UO-31) was 12.2 µM (inactive) and the GI50 (SK-MEL-28) was 30.1 µM (inactive). For the same molecule, the GI50 (HCT-15) was 29.2 µM, the GI50 (A549) was 42.7 µM (inactive) and the GI50 (EKVX) was 28.1 µM (inactive). For the same molecule, the GI50 (NCI-H522) was 22.3 µM (inactive), the GI50 (M14) was 33.3 µM (inactive) and the GI50 (SN12C) was 27.7 µM (inactive). The GI50 (NCI-H460) was 24.5 µM (inactive), the GI50 (NCI-H23) was 22.8 µM (inactive) and the GI50 (CCRF-CEM) was 27.6 µM (inactive). For the same molecule, the GI50 (DMS-114) was 12.2 µM (inactive), the GI50 (SK-OV-3) was 27.7 µM (inactive) and the GI50 (LXFL 529) was 23.7 µM (inactive). For the same molecule, the GI50 (HOP-62) was 13.3 µM (inactive), the GI50 (RPMI-8226) was 17.4 µM (inactive) and the GI50 (DMS-273) was 32.3 µM (inactive). For the same molecule, the GI50 (LOX IMVI) was 47.5 µM (inactive), the GI50 (RXF 631) was 67.6 µM (inactive) and the GI50 (HOP-92) was 13.7 µM (inactive). The GI50 (MOLT-4) was 20.6 µM (inactive), the GI50 (K562) was 16.7 µM (inactive) and the GI50 (HL-60) was 20.5 µM (inactive). For the same molecule, the GI50 (HOP-18) was 25.5 µM (inactive), the GI50 (ACHN) was 28.7 µM (inactive) and the GI50 (TK-10) was 61.9 µM (inactive). For the same molecule, the GI50 (A498) was 38.3 µM (inactive), the GI50 (SW-620) was 45.1 µM (inactive) and the GI50 (SK-MEL-5) was 21.9 µM (inactive). For the same molecule, the GI50 (XF498) was 25.1 µM (inactive), the GI50 (KM-20L2) was 23.6 µM (inactive) and the GI50 (SF-268) was 32.1 µM (inactive). The GI50 (HCT-116) was 17.7 µM (inactive), the GI50 (DLD-1) was 30.1 µM (inactive) and the GI50 (COLO 205) was 27.2 µM (inactive).

For Cc1ccc(SC(CCC(Sc2ccc(C)cc2)Sc2ccc(C)cc2)Sc2ccc(C)cc2)cc1, the GI50 (SF-539) was > 100 µM (inactive), the GI50 (U-251) was > 100 µM (inactive) and the GI50 (SNB-19) was > 100 µM (inactive). The GI50 (OVCAR-8) was > 100 µM (inactive), the GI50 (RXF 393) was > 100 µM (inactive) and the GI50 (UO-31) was > 100 µM (inactive). For the same molecule, the GI50 (SK-MEL-28) was > 100 µM (inactive), the GI50 (HCT-15) was over 100 µM and the GI50 (A549) was > 100 µM (inactive). For the same molecule, the GI50 (SNB-78) was > 100 µM (inactive), the GI50 (EKVX) was > 100 µM (inactive) and the GI50 (NCI-H522) was > 100 µM (inactive). The GI50 (UACC-257) was > 100 µM (inactive), the GI50 (M14) was > 100 µM (inactive) and the GI50 (SK-MEL-2) was > 100 µM (inactive). For the same molecule, the GI50 (SN12C) was > 100 µM (inactive), the GI50 (M19-MEL) was > 100 µM (inactive) and the GI50 (OVCAR-4) was > 100 µM (inactive). For the same molecule, the GI50 (NCI-H460) was > 100 µM (inactive), the GI50 (NCI-H23) was > 100 µM (inactive) and the GI50 (IGROV-1) was > 100 µM (inactive). The GI50 (SF-295) was > 100 µM (inactive), the GI50 (CCRF-CEM) was > 100 µM (inactive) and the GI50 (DMS-114) was > 100 µM (inactive). The GI50 (SK-OV-3) was > 100 µM (inactive), the GI50 (KM12) was > 100 µM (inactive) and the GI50 (HOP-62) was > 100 µM (inactive). The GI50 (RPMI-8226) was > 100 µM (inactive), the GI50 (DMS-273) was > 100 µM (inactive) and the GI50 (SNB-75) was > 100 µM (inactive). The GI50 (LOX IMVI) was > 100 µM (inactive), the GI50 (RXF 631) was > 100 µM (inactive) and the GI50 (HOP-92) was 71.1 µM (inactive). The GI50 (MOLT-4) was > 100 µM (inactive), the GI50 (K562) was > 100 µM (inactive) and the GI50 (HL-60) was > 100 µM (inactive). The GI50 (OVCAR-3) was > 100 µM (inactive), the GI50 (ACHN) was > 100 µM (inactive) and the GI50 (TK-10) was > 100 µM (inactive). For the same molecule, the GI50 (A498) was > 100 µM (inactive), the GI50 (SW-620) was > 100 µM (inactive) and the GI50 (SK-MEL-5) was > 100 µM (inactive). For the same molecule, the GI50 (UACC-62) was > 100 µM (inactive), the GI50 (XF498) was > 100 µM (inactive) and the GI50 (SR) was > 100 µM (inactive). For the same molecule, the GI50 (KM-20L2) was > 100 µM (inactive), the GI50 (SF-268) was > 100 µM (inactive) and the GI50 (CAKI-1) was > 100 µM (inactive). The GI50 (HCT-116) was > 100 µM (inactive), the GI50 (786-0) was > 100 µM (inactive) and the GI50 (DLD-1) was > 100 µM (inactive). For the same molecule, the GI50 (COLO 205) was > 100 µM (inactive).
